# According to ChEMBL document CHEMBL1201862, “PubChem BioAssay data set” (2004):
#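 Following 48 hours of exposure in 96-well plates, responses at five concentrations were used to interpolate endpoints linearly. Here, GI50 denotes the concentration required for 50% inhibition of growth.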 Calls of active or inactive are those of the source. No stated cut-off is given here; in the data, active = GI50 up to about 1.1 µM and inactive = higher.
# Experiments:
# Experiment in all cases: NCI-60 cell line screen, 48 h
# HOP-92 = tested on: HOP-92
# Hs-578T = tested on: Hs-578T
# SF-539 = tested on: SF-539
# M14 = tested on: M14
# HOP-62 = tested on: HOP-62
# SK-OV-3 = tested on: SK-OV-3
# UACC-62 = tested on: UACC-62
# HCT-116 = tested on: HCT-116
# EKVX = tested on: EKVX
# SK-MEL-5 = tested on: SK-MEL-5
# 786-0 = tested on: 786-0
# OVCAR-3 = tested on: OVCAR-3
# RXF 393 = tested on: RXF 393
# LOX IMVI = tested on: LOX IMVI
# MDA-MB-435 = tested on: MDA-MB-435
# SN12C = tested on: SN12C
# MCF7 = tested on: MCF7
# MDA-N = tested on: MDA-N
# KM12 = tested on: KM12
# SF-268 = tested on: SF-268
# OVCAR-8 = tested on: OVCAR-8
# A498 = tested on: A498
# OVCAR-5 = tested on: OVCAR-5
# IGROV-1 = tested on: IGROV-1
# UO-31 = tested on: UO-31
# HL-60 = tested on: HL-60
# T47D = tested on: T47D
# SR = tested on: SR
# A549 = tested on: A549
# UACC-257 = tested on: UACC-257
# SF-295 = tested on: SF-295
# HCT-15 = tested on: HCT-15
# SK-MEL-2 = tested on: SK-MEL-2
# OVCAR-4 = tested on: OVCAR-4
# HCC 2998 = tested on: HCC 2998
# CAKI-1 = tested on: CAKI-1
# COLO 205 = tested on: COLO 205
# SNB-19 = tested on: SNB-19
# MDA-MB-231 = tested on: MDA-MB-231
# HT-29 = tested on: HT-29
# PC-3 = tested on: PC-3
# MOLT-4 = tested on: MOLT-4
# NCI-H226 = tested on: NCI-H226
# CCRF-CEM = tested on: CCRF-CEM
# SW-620 = tested on: SW-620
# TK-10 = tested on: TK-10
# U-251 = tested on: U-251
# NCI-H522 = tested on: NCI-H522
# NCI/ADR-RES = tested on: NCI/ADR-RES
# K562 = tested on: K562
# NCI-H460 = tested on: NCI-H460
# ACHN = tested on: ACHN
# DU-145 = tested on: DU-145
# Malme-3M = tested on: Malme-3M
# SK-MEL-28 = tested on: SK-MEL-28
# NCI-H23 = tested on: NCI-H23
# SNB-75 = tested on: SNB-75
# BT-549 = tested on: BT-549
# RPMI-8226 = tested on: RPMI-8226
compound,measurement,setting,value
O=C(O)C1CC2C3CCC2C1C3=O (stereo not given),GI50,HOP-92,> 100 µM (inactive)
same,GI50,Hs-578T,> 100 µM (inactive)
same,GI50,SF-539,> 100 µM (inactive)
same,GI50,M14,> 100 µM (inactive)
same,GI50,HOP-62,> 100 µM (inactive)
same,GI50,SK-OV-3,> 100 µM (inactive)
same,GI50,UACC-62,> 100 µM (inactive)
same,GI50,HCT-116,> 100 µM (inactive)
same,GI50,EKVX,> 100 µM (inactive)
same,GI50,SK-MEL-5,> 100 µM (inactive)
same,GI50,786-0,> 100 µM (inactive)
same,GI50,OVCAR-3,> 100 µM (inactive)
same,GI50,RXF 393,> 100 µM (inactive)
same,GI50,LOX IMVI,> 100 µM (inactive)
same,GI50,MDA-MB-435,> 100 µM (inactive)
same,GI50,SN12C,> 100 µM (inactive)
same,GI50,MCF7,> 100 µM (inactive)
same,GI50,MDA-N,> 100 µM (inactive)
same,GI50,KM12,> 100 µM (inactive)
same,GI50,SF-268,> 100 µM (inactive)
same,GI50,OVCAR-8,> 100 µM (inactive)
same,GI50,A498,> 100 µM (inactive)
same,GI50,OVCAR-5,> 100 µM (inactive)
same,GI50,IGROV-1,> 100 µM (inactive)
same,GI50,UO-31,> 100 µM (inactive)
same,GI50,HL-60,> 100 µM (inactive)
same,GI50,T47D,> 100 µM (inactive)
same,GI50,SR,> 100 µM (inactive)
same,GI50,A549,> 100 µM (inactive)
same,GI50,UACC-257,> 100 µM (inactive)
same,GI50,SF-295,> 100 µM (inactive)
same,GI50,HCT-15,> 100 µM
same,GI50,SK-MEL-2,> 100 µM (inactive)
same,GI50,OVCAR-4,> 100 µM (inactive)
same,GI50,HCC 2998,> 100 µM (inactive)
same,GI50,CAKI-1,> 100 µM (inactive)
same,GI50,COLO 205,> 100 µM (inactive)
same,GI50,SNB-19,> 100 µM (inactive)
same,GI50,MDA-MB-231,> 100 µM (inactive)
same,GI50,HT-29,> 100 µM (inactive)
same,GI50,PC-3,> 100 µM (inactive)
same,GI50,MOLT-4,> 100 µM (inactive)
same,GI50,NCI-H226,> 100 µM (inactive)
same,GI50,CCRF-CEM,> 100 µM (inactive)
same,GI50,SW-620,> 100 µM (inactive)
same,GI50,TK-10,> 100 µM (inactive)
same,GI50,U-251,> 100 µM (inactive)
same,GI50,NCI-H522,> 100 µM (inactive)
same,GI50,NCI/ADR-RES,> 100 µM (inactive)
same,GI50,K562,> 100 µM (inactive)
same,GI50,NCI-H460,> 100 µM (inactive)
same,GI50,ACHN,> 100 µM (inactive)
same,GI50,DU-145,> 100 µM (inactive)
same,GI50,Malme-3M,> 100 µM (inactive)
same,GI50,SK-MEL-28,> 100 µM (inactive)
same,GI50,NCI-H23,> 100 µM (inactive)
same,GI50,SNB-75,> 100 µM (inactive)
COc1c2nc(CCl)n(C)c(=O)c2c(OC)c2c(=O)n(C)c(CCl)nc12,GI50,HOP-92,> 100 µM (inactive)
same,GI50,Hs-578T,4.27 µM (inactive)
same,GI50,SF-539,3.44 µM (inactive)
same,GI50,HOP-62,1.87 µM (inactive)
same,GI50,HCT-116,1.11 µM (active)
same,GI50,EKVX,3.31 µM (inactive)
same,GI50,SK-MEL-5,1.92 µM (inactive)
same,GI50,786-0,0.904 µM (active)
same,GI50,OVCAR-3,1.84 µM (inactive)
same,GI50,RXF 393,2.07 µM (inactive)
same,GI50,BT-549,0.544 µM (active)
same,GI50,LOX IMVI,0.446 µM (active)
same,GI50,MDA-MB-435,2.11 µM (inactive)
same,GI50,SN12C,1.69 µM (inactive)
same,GI50,MCF7,0.48 µM (active)
same,GI50,MDA-N,1.49 µM (inactive)
same,GI50,KM12,1.22 µM (inactive)
same,GI50,SF-268,1.48 µM (inactive)
same,GI50,OVCAR-8,2.67 µM (inactive)
same,GI50,A498,2.33 µM (inactive)
same,GI50,OVCAR-5,2.3 µM (inactive)
same,GI50,IGROV-1,1.94 µM (inactive)
same,GI50,UO-31,1.24 µM (inactive)
same,GI50,HL-60,0.653 µM (active)
same,GI50,A549,3.08 µM (inactive)
same,GI50,UACC-257,1.81 µM (inactive)
same,GI50,SF-295,1.84 µM (inactive)
same,GI50,HCT-15,1.48 µM
same,GI50,OVCAR-4,> 100 µM (inactive)
same,GI50,HCC 2998,1.34 µM (inactive)
same,GI50,CAKI-1,1.6 µM (inactive)
same,GI50,RPMI-8226,0.303 µM (active)
same,GI50,COLO 205,1.41 µM (inactive)
same,GI50,SNB-19,2.11 µM (inactive)
same,GI50,MDA-MB-231,1.55 µM (inactive)
same,GI50,HT-29,1.3 µM (inactive)
same,GI50,PC-3,1.29 µM (inactive)
same,GI50,MOLT-4,0.294 µM (active)
same,GI50,NCI-H226,3.06 µM (inactive)
same,GI50,CCRF-CEM,0.354 µM (active)
same,GI50,SW-620,1.1 µM (active)
same,GI50,TK-10,0.447 µM (active)
same,GI50,U-251,1.64 µM (inactive)
same,GI50,NCI-H522,1.34 µM (inactive)
same,GI50,NCI/ADR-RES,2.49 µM (inactive)
same,GI50,K562,0.689 µM (active)
same,GI50,NCI-H460,1.97 µM (inactive)
same,GI50,ACHN,1.19 µM (inactive)
same,GI50,DU-145,3.4 µM (inactive)
same,GI50,Malme-3M,1.76 µM (inactive)
same,GI50,SK-MEL-28,1.85 µM (inactive)
same,GI50,NCI-H23,1.62 µM (inactive)
same,GI50,SNB-75,0.719 µM (active)
